{"source": "paper PMC7985297", "about": "(Communications Biology, 2021)", "key": {"[1]": {"molecular_target": "T1, AR interaction with STAT3 (Homo sapiens, UniProt P10275, T878A)", "T1 construct": "Endogenous STAT3 complexes were co-immunoprecipitated from LNCaP cells treated with juglone and IL-6; endogenous in cells; host or cells: LNCaP", "T1 sequence (P10275 whole entry T878A)": "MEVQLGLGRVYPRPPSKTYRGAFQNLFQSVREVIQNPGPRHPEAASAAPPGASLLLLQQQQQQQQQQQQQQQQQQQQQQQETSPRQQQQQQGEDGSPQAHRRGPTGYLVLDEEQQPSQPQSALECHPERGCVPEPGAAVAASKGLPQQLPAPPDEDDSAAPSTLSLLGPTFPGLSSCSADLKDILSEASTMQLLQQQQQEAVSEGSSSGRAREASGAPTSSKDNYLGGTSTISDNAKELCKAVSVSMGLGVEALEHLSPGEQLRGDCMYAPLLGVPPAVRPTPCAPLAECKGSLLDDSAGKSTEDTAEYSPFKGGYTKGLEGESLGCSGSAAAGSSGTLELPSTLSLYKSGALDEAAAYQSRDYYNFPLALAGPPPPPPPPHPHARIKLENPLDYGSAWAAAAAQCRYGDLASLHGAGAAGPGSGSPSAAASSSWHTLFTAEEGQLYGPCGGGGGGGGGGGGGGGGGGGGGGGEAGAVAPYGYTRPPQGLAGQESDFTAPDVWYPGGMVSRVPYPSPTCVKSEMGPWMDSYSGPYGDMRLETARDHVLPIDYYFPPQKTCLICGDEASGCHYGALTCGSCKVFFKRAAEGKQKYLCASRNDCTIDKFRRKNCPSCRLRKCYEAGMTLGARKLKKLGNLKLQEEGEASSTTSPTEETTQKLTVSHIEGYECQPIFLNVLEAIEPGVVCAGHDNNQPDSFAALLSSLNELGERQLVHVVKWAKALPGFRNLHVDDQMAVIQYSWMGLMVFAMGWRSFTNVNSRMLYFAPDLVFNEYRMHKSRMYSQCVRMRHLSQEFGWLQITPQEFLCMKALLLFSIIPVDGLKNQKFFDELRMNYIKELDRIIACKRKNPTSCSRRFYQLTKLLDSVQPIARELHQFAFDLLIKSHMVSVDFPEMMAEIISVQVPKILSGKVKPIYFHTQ", "assay": "Co-immunoprecipitation of AR with STAT3 from LNCaP cells", "type": "cell-based", "details": "juglone 30 μM, IL-6 50 ng/mL, 6 h", "method": "(§1) Fig. 3 Pin1 interacts with the AR NTD and regulates transactivation. a, b Transactivation assays performed in LNCaP cells expressing a vector encoding the human AR NTD fused to a Gal4 DNA-binding domain (Gal4-ARN). […] Input samples show Pin1 expression from lysates before the pull-down. i Co-immunoprecipitation assay showing AR protein co-immunoprecipitated with STAT3 from LNCaP cells incubated with EPI-002 (EPI, 35 μM), juglone (JUG, 30 μM), or vehicle (VEH, DMSO), and IL-6 (50 ng/mL) for 6 h. j, k Levels of phosphorylated MAPK (isoforms p44 and p42) and phosphorylated STAT3 (Tyr705 and Ser727) from LNCaP cells pre-treated with juglone (20 µM) and then stimulated with IL-6 (50 ng/mL) for 15 min. Error bars show the mean ± s.e.m. *P < 0.05, **P < 0.01, ***P < 0.001; ns not significant."}, "[2]": {"test_system": "phosphorylated MAPK (p44 and p42) and STAT3 (Tyr705 and Ser727)", "assay": "Western blot of phosphorylated MAPK and STAT3 after IL-6 in LNCaP cells", "type": "cell-based, human", "details": "juglone 20 µM, IL-6 50 ng/mL 15 min", "method": "as §1"}, "[3]": {"assay": "Body weight and tolerability in the xenograft study", "type": "in vivo, mice", "details": "ATRA 5mg"}, "LN95-D3 xenografts": {"test_system": "LN95-D3 xenografts", "assay": "Growth of LN95-D3 CRPC xenografts in castrated male NSG mice", "type": "in vivo", "details": "for Tumor volume, individual animals (Fig. 7b): ATRA 5mg, in mm³ (unit assumed)"}, "DU145 cells": {"test_system": "DU145 cells", "assay": "BrdU incorporation assay, DU145", "type": "cell-based, human", "details": "ATRA 10 µM", "method": "Cells were treated with the inhibitors and stimulated with 1 nM of R1881 (+) or vehicle (−) for 24 to 72 h. Each data point represents the average from an independent experiment where the error bars show the mean ± s.e.m.\nBrdU incorporation was determined with the colorimetric BrdU ELISA kit (Roche Diagnostics), according to the manufacturer’s protocol. In brief, cells were seeded in 96-well plates (LNCaP, 5000/well; LN95, 8000/well; PC-3 and DU145, 4000/wells) in media with reduced serum (0.5–1%). On the following day, cells were pre-treated with test compounds for 1 h and then incubated with 0.1 nM of R1881. After the indicated incubation times, cells were labeled with 10 μM of BrdU for 2 h and then fixed for the assay."}, "[4]": {"test_system": "Pin1, Cyclin D1, Skp2 and AR in LN95-D3 tumors", "assay": "Western blot of harvested LN95-D3 xenograft tumors (Pin1, Cyclin D1, Skp2, AR)", "type": "in vivo, mice", "details": "ATRA pellets compared to placebo", "method": "Scale bars represent 5 mm (f) western blot analysis showing the expression of Pin1, Cyclin D1, Skp2, and AR from representative tumors. Quantification of the data is shown for g Pin1 and h Skp2, where the error bars represent the mean ± s.e.m.\nAll experiments involving animals conform to the relevant regulatory and ethical standards and were approved by the University of British Columbia Animal Care Committee (A18-0077). Metacam (1 mg/kg, 0.05 mL/10 g of body weight) was administered subcutaneously prior to any surgery. Animals were anesthetized with isoflurane and euthanized by CO2. Six–eight-week-old male (NOD-scid IL2Rgamma^null) mice were maintained in the Animal Care Facility at the British Columbia Cancer Research Centre. Mice were castrated 2 weeks before they were subcutaneously inoculated in the right flank with two million LN95-D3 cells in a 1:1 volume of matrigel (Corning Discovery Labware, Corning, NY). […] Tumors were excised 1 day after the last dose and prepared for western blot analysis and immunohistochemistry."}, "[5]": {"test_system": "Ki-67, PSA and AR in LN95-D3 xenografts", "assay": "Immunohistochemistry of LN95-D3 xenografts (Ki-67, PSA, AR)", "type": "in vivo, mice", "description": "Fig. 8 Immunohistochemistry of LN95-D3 xenografts. a Representative images showing the histomorphology and expression of Ki-67, PSA, and AR from harvested tumors. Scale bars represent 100 µm. Statistical analysis for b the percentage of Ki-67-positive tumor cells and for the expression of c PSA and d AR. Error bars represent the mean ± s.d.\nSections were cut from formalin-fixed, paraffin-embedded tumor tissue at a thickness of 5 µm, deparaffinized in xylene, and then rehydrated in alcohols and distilled water. Endogenous peroxidase was blocked by incubating with a 3% hydrogen peroxide solution for 5 min. […] PSA was detected using a monoclonal mouse anti-human PSA antibody concentrate (ER-PR8; Dako). A negative control without the primary antibody was included for each sample on the same slide. Antigen was detected with 3,3-diaminobenzidine (DAB) and hematoxylin was used for counterstaining. Images were captured on an Axio Imager M2 microscope (Zeiss) at ×200 magnification. The percentage of Ki-67-positive cells was determined with ImageJ using the Cell Counter plugin. At least 1000 cells were scored from three images of representative tumors for each treatment group. The intensity of DAB staining for PSA was quantified by ImageJ using color deconvolution and measuring the mean gray value for the DAB image, where optical density = log(max intensity/mean intensity), and a max intensity of 255 for an 8-bit image."}, "LN95 cells": {"test_system": "LN95 cells", "assay": "Colony formation of LN95 cells", "type": "cell-based, human", "details": "LN95, ATRA 5 or 10 µM, EPI-002 25 µM, treated 24 hours then re-plated", "method": "page 5: Supplementary Figure 5 a b […] (a) Representative images of colonies from LN95 cells after […] EPI-002. After treating with compounds for 24 hours, the media was removed, and 500 -1,000 cells were re-plated in 6-well plates. Colonies were fixed with 4% paraformaldehyde, stained with a 0.1% crystal violet solution, and then imaged. […]"}}, "note": "“And” between values parts separate entries of the source, which are not always exact repeats. Equal entries are not always repeated. “Also recorded” adds a separate entry of the source.", "data": [{"smiles": "O=C1C=CC(=O)c2c(O)cccc21", "note": "[juglone]", "values": [{"measurement": "reduction of the amount of AR interacting with STAT3", "setting": "[1]", "result": "~ 50%"}, {"measurement": "effect on IL-6-induced phosphorylation of MAPK and STAT3", "setting": "[2]", "result": "did not prevent phosphorylation of MAPK (isoforms p44 and p42) or STAT3 (Tyr705 and Ser727)"}]}, {"smiles": "CC1=C(/C=C/C(C)=C/C=C/C(C)=C/C(=O)O)C(C)(C)CCC1", "note": "[ATRA, all-trans retinoic acid]", "values": [{"measurement": "Body weight, individual animals (Fig. 7c)", "setting": "[3]; treatment duration 0 days", "result": "26.7 and 29.9 and 28.1 and 28.2 and 29.3 and 28.3 and 30.2 (2×)"}, {"measurement": "Body weight, individual animals (Fig. 7c)", "setting": "[3]; treatment duration 1 days, in g (unit assumed)", "result": "26.8 and 30.1 and 28.1 and 27.9 and 29.3 and 28.7 and 29 and 29.8"}, {"measurement": "Body weight, individual animals (Fig. 7c)", "setting": "[3]; treatment duration 2 days", "result": "26.7 and 29.8 and 27.6 (2×) and 28.9 and 28.8 and 29.1 and 29.4"}, {"measurement": "Body weight, individual animals (Fig. 7c)", "setting": "[3]; treatment duration 3 days", "result": "25.9 and 29 and 25.6 and 26.8 and 28.1 and 28.3 (2×) and 28.9"}, {"measurement": "Body weight, individual animals (Fig. 7c)", "setting": "[3]; treatment duration 4 days, in g (unit assumed)", "result": "25.2 and 28.9 and 27 and 27.1 and 29.1 and 28.5 and 27.5 and 28.7"}, {"measurement": "Body weight, individual animals (Fig. 7c)", "setting": "[3]; treatment duration 5 days, in g (unit assumed)", "result": "23.9 and 28.3 and 26.5 and 27 and 28.5 and 28.2 and 26.8 and 27.8"}, {"measurement": "Body weight, individual animals (Fig. 7c)", "setting": "[3]; treatment duration 6 days, in g (unit assumed)", "result": "23.9 and 27.9 and 26.1 and 26.5 and 28.2 and 27.4 and 26.8 and 28"}, {"measurement": "Body weight, individual animals (Fig. 7c)", "setting": "[3]; treatment duration 7 days", "result": "23.9 and 27.5 (2×) and 25.7 and 26.4 and 28.1 and 26.9 and 27.6"}, {"measurement": "Body weight, individual animals (Fig. 7c)", "setting": "[3]; treatment duration 8 days, in g (unit assumed)", "result": "23.1 and 27.9 and 25.6 and 26.6 and 28.2 and 27.4 and 25.9 and 27.6"}, {"measurement": "Body weight, individual animals (Fig. 7c)", "setting": "[3]; treatment duration 9 days", "result": "22.3 and 27.6 and 25.3 (2×) and 26.2 and 28.4 and 27.3 and 27.7"}, {"measurement": "Body weight, individual animals (Fig. 7c)", "setting": "[3]; treatment duration 10 days", "result": "22.1 and 28.3 and 24.9 and 26.3 (2×) and 27.9 and 25.2 and 27.4"}, {"measurement": "Body weight, individual animals (Fig. 7c)", "setting": "[3]; treatment duration 11 days, in g (unit assumed)", "result": "22 and 28 and 24.2 and 26 and 27.8 and 25.3 and 24.7 and 27.2"}, {"measurement": "Body weight, individual animals (Fig. 7c)", "setting": "[3]; treatment duration 12 days, in g (unit assumed)", "result": "21.9 and 27.9 and 24.6 and 26.1"}, {"measurement": "tumor growth after 21 days of treatment", "setting": "LN95-D3 xenografts; castrated mice, ATRA 5 mg 21-day release pellet, EPI-7170 30 mg/kg daily oral, relative to vehicle/placebo-control", "result": "significantly reduced"}, {"measurement": "growth of LN95-D3 tumors, pilot study", "setting": "LN95-D3 xenografts; mice bearing ATRA slow-release pellets compared to placebo", "result": "markedly reduced"}, {"measurement": "Tumor volume, individual animals (Fig. 7b)", "setting": "LN95-D3 xenografts; treatment duration 0 days", "result": "24.32 and 14.61 and 31.83 and 56.34 and 20.55 and 20.28 and 50.07 and 32.48"}, {"measurement": "Tumor volume, individual animals (Fig. 7b)", "setting": "LN95-D3 xenografts; treatment duration 3 days", "result": "55.84 and 24.48 and 48.26 and 128.17 and 47.08 and 28.39 and 67.63 and 51.78"}, {"measurement": "Tumor volume, individual animals (Fig. 7b)", "setting": "LN95-D3 xenografts; treatment duration 6 days", "result": "83.34 and 43.04 and 71.44 and 190.56 and 74.31 and 35.31 and 102.14 and 93.49"}, {"measurement": "Tumor volume, individual animals (Fig. 7b)", "setting": "LN95-D3 xenografts; treatment duration 9 days", "result": "133.91 and 53.07 and 85.22 and 295.56 and 122.11 and 47.93 and 142.91 and 132.75"}, {"measurement": "Tumor volume, individual animals (Fig. 7b)", "setting": "LN95-D3 xenografts; treatment duration 12 days", "result": "206.68 and 57.46 and 89.96 and 435.8 and 154.08 and 63.14 and 159.59 and 153.66"}, {"measurement": "Tumor volume, individual animals (Fig. 7b)", "setting": "LN95-D3 xenografts; treatment duration 15 days", "result": "291.35 and 84.16 and 118.21 and 658.17 and 325.4 and 102.18 and 255.62 and 266.01"}, {"measurement": "Tumor volume, individual animals (Fig. 7b)", "setting": "LN95-D3 xenografts; treatment duration 18 days", "result": "379.83 and 117.24 and 202.18 and 871.57 and 503.37 and 170.47 and 377.34 and 331.83"}, {"measurement": "Tumor volume, individual animals (Fig. 7b)", "setting": "LN95-D3 xenografts; treatment duration 21 days", "result": "564.91 and 139.55 and 232.06 and 1102.95 and 649.08 and 196.67 and 421.71 and 345.48"}, {"measurement": "effect on proliferation of DU145 cells", "setting": "DU145 cells", "result": "did not impact the proliferation of either PC-3 or DU145 cells"}, {"measurement": "BrdU incorporation, DU145 (Fig. 4d)", "setting": "DU145 cells; − R1881, ENZ 10 µM, EPI-002 25 µM, JUG 20 µM", "result": "0.607 and 0.932 and 1.111 and 0.945"}, {"measurement": "Pin1 (and cyclin D1) levels in xenografts", "setting": "[4]", "result": "decrease in Pin1 levels; also recorded: decreased levels of Pin1 and its target cyclin D1"}, {"measurement": "effect on number of Ki-67-positive tumor cells", "setting": "[5]; LN95-D3 xenografts", "result": "decreased the number of Ki-67-positive tumor cells in xenografts"}, {"measurement": "levels of AR protein in xenografts (IHC)", "setting": "[5]; LN95-D3 xenografts", "result": "decreased slightly"}, {"measurement": "percentage of Ki-67-positive tumor cells (Fig. 8b)", "setting": "[5]; LN95-D3 xenografts, ATRA 5 mg pellet, EPI-7170 30 mg/kg/d, one value per tumor, listed as CMC ATRA", "result": "8.32% and 15.81% and 16.91%"}, {"measurement": "effect on PSA expression in xenografts (IHC)", "setting": "[5]; compared to the control", "result": "decreased"}, {"measurement": "effect on colony formation", "setting": "LN95 cells", "result": "inhibited the ability of LN95 cells to form colonies in a dose-dependent manner"}]}]}
